Measurements published in patent US20230085307A1, “PYRIDAZINONE COMPOUND AND HERBICIDE” (NISSAN CHEMICAL CORPORATION, priority 2019, published 2023).

Legend:
barnyard grass [1] = assay: Test Example 3: herbicidal effect by foliage application, Wagner pot (Table 18, symbol H); format: in vivo, barnyard grass (Echinochloa crus-galli); settings: amount of applied herbicide 320 g/ha
Method in brief: (§1)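 Plants were sown in alluvial soil held under 0.1–0.5 cm standing water and grown 14 days in a greenhouse at 25–30 °C. An emulsifiable formulation, water-diluted to the set dose, was then sprayed onto the foliage, and effects were scored three weeks later using previously defined criteria.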

Chinese sprangletop = assay: Test Example 3: herbicidal effect by foliage application, Wagner pot (Table 18, symbol D); format: in vivo, chinese sprangletop (Leptochloa chinensis); settings: amount of applied herbicide 320 g/ha
Method in brief: as §1

rice flat sedge = assay: Test Example 3: herbicidal effect by foliage application, Wagner pot (Table 18, symbol E); format: in vivo, rice flat sedge (Cyperus iria); settings: amount of applied herbicide 320 g/ha
Method in brief: as §1

southern crabgrass [2] = assay: Test Example 4: herbicidal effect by soil treatment (Table 19, symbol F); format: in vivo, southern crabgrass (Digitaria ciliaris); settings: amount of applied herbicide 320 g/ha
Method in brief: (§2)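 Applied as a water-diluted emulsion, the compound was sprayed onto soil covering newly sown seeds. Evaluation came three weeks after application, in a greenhouse held at 25° C. to 30° C.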

green foxtail [3] = assay: Test Example 4: herbicidal effect by soil treatment (Table 19, symbol G); format: in vivo, green foxtail (Setaria viridis); settings: amount of applied herbicide 320 g/ha
Method in brief: as §2

barnyard grass [4] = assay: Test Example 4: herbicidal effect by soil treatment (Table 19, symbol H); format: in vivo, barnyard grass (Echinochloa crus-galli); settings: amount of applied herbicide 320 g/ha
Method in brief: as §2

wild oat [5] = assay: Test Example 4: herbicidal effect by soil treatment (Table 19, symbol I); format: in vivo, wild oat (Avena fatua); settings: amount of applied herbicide 320 g/ha
Method in brief: as §2

blackgrass [6] = assay: Test Example 4: herbicidal effect by soil treatment (Table 19, symbol J); format: in vivo, blackgrass (Alopecurus myosuroides); settings: amount of applied herbicide 320 g/ha
Method in brief: as §2

Italian ryegrass [7] = assay: Test Example 4: herbicidal effect by soil treatment (Table 19, symbol K); format: in vivo, Italian ryegrass (Lolium multiflorum); settings: amount of applied herbicide 320 g/ha
Method in brief: as §2

windgrass [8] = assay: Test Example 4: herbicidal effect by soil treatment (Table 19, symbol L); format: in vivo, windgrass (Apera spica-venti); settings: amount of applied herbicide 320 g/ha
Method in brief: as §2

velvetleaf [9] = assay: Test Example 4: herbicidal effect by soil treatment (Table 19, symbol M); format: in vivo, velvetleaf (Abutilon theophrasti); settings: amount of applied herbicide 320 g/ha
Method in brief: as §2

redroot pigweed [10] = assay: Test Example 4: herbicidal effect by soil treatment (Table 19, symbol N); format: in vivo, redroot pigweed (Amaranthus retroflexus); settings: amount of applied herbicide 320 g/ha
Method in brief: as §2

lambsquarters [11] = assay: Test Example 4: herbicidal effect by soil treatment (Table 19, symbol O); format: in vivo, lambsquarters (Chenopodium album); settings: amount of applied herbicide 320 g/ha
Method in brief: as §2

chickweed [12] = assay: Test Example 4: herbicidal effect by soil treatment (Table 19, symbol P); format: in vivo, common chickweed (Stellaria media); settings: amount of applied herbicide 320 g/ha
Method in brief: as §2

persian speedwell [13] = assay: Test Example 4: herbicidal effect by soil treatment (Table 19, symbol R); format: in vivo, Persian speedwell (Veronica persica); settings: amount of applied herbicide 320 g/ha
Method in brief: as §2

southern crabgrass [14] = assay: Test Example 5: herbicidal effect by foliage application, plastic box (Table 20, symbol F); format: in vivo, southern crabgrass (Digitaria ciliaris); settings: foliage application, 320 g/ha, three weeks after application
Method in brief: (§3)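 Sow seeds spot-wise in sterilized diluvial soil; cover with ~1.5 cm soil. Grow 14 days in greenhouse, 25° C. to 30° C. Spray foliage with emulsion diluted to predetermined amount. Rate effect after 3 weeks.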

green foxtail [15] = assay: Test Example 5: herbicidal effect by foliage application, plastic box (Table 20, symbol G); format: in vivo, green foxtail (Setaria viridis); settings: foliage application, 320 g/ha, three weeks after application
Method in brief: as §3

barnyard grass [16] = assay: Test Example 5: herbicidal effect by foliage application, plastic box (Table 20, symbol H); format: in vivo, barnyard grass (Echinochloa crus-galli); settings: foliage application, 320 g/ha, three weeks after application
Method in brief: as §3

wild oat [17] = assay: Test Example 5: herbicidal effect by foliage application, plastic box (Table 20, symbol I); format: in vivo, wild oat (Avena fatua); settings: foliage application, 320 g/ha, three weeks after application
Method in brief: as §3

blackgrass [18] = assay: Test Example 5: herbicidal effect by foliage application, plastic box (Table 20, symbol J); format: in vivo, blackgrass (Alopecurus myosuroides); settings: foliage application, 320 g/ha, three weeks after application
Method in brief: as §3

Italian ryegrass [19] = assay: Test Example 5: herbicidal effect by foliage application, plastic box (Table 20, symbol K); format: in vivo, Italian ryegrass (Lolium multiflorum); settings: foliage application, 320 g/ha, three weeks after application
Method in brief: as §3

windgrass [20] = assay: Test Example 5: herbicidal effect by foliage application, plastic box (Table 20, symbol L); format: in vivo, windgrass (Apera spica-venti); settings: foliage application, 320 g/ha, three weeks after application
Method in brief: as §3

velvetleaf [21] = assay: Test Example 5: herbicidal effect by foliage application, plastic box (Table 20, symbol M); format: in vivo, velvetleaf (Abutilon theophrasti); settings: foliage application, 320 g/ha, three weeks after application
Method in brief: as §3

redroot pigweed [22] = assay: Test Example 5: herbicidal effect by foliage application, plastic box (Table 20, symbol N); format: in vivo, redroot pigweed (Amaranthus retroflexus); settings: foliage application, 320 g/ha, three weeks after application
Method in brief: as §3

lambsquarters [23] = assay: Test Example 5: herbicidal effect by foliage application, plastic box (Table 20, symbol O); format: in vivo, lambsquarters (Chenopodium album); settings: foliage application, 320 g/ha, three weeks after application
Method in brief: as §3

chickweed [24] = assay: Test Example 5: herbicidal effect by foliage application, plastic box (Table 20, symbol P); format: in vivo, common chickweed (Stellaria media); settings: foliage application, 320 g/ha, three weeks after application
Method in brief: as §3

persian speedwell [25] = assay: Test Example 5: herbicidal effect by foliage application, plastic box (Table 20, symbol R); format: in vivo, Persian speedwell (Veronica persica); settings: foliage application, 320 g/ha, three weeks after application
Method in brief: as §3

Compound	herbicidal effect on H: barnyard grass (barnyard grass [1])	herbicidal effect on D: Chinese sprangletop (Chinese sprangletop)	herbicidal effect on E: rice flat sedge (rice flat sedge)	F: southern crabgrass, herbicidal effect grade (southern crabgrass [14])	G: green foxtail, herbicidal effect grade (green foxtail [15])	H: barnyard grass, herbicidal effect grade (barnyard grass [16])	I: wild oat, herbicidal effect grade (wild oat [17])	J: blackgrass, herbicidal effect grade (blackgrass [18])	K: Italian ryegrass, herbicidal effect grade (Italian ryegrass [19])	L: windgrass, herbicidal effect grade (windgrass [20])	M: velvetleaf, herbicidal effect grade (velvetleaf [21])	N: redroot pigweed, herbicidal effect grade (redroot pigweed [22])	O: lambsquarters, herbicidal effect grade (lambsquarters [23])	P: chickweed, herbicidal effect grade (chickweed [24])	R: persian speedwell, herbicidal effect grade (persian speedwell [25])	also measured
CCc1nn(C)c(=O)c(-c2c(-c3ccc(OC(F)(F)F)cc3)sc3ccc(F)cc23)c1O [2-412]	4 (Herbicidal rate of 70% or more and less than 90%)	0 (Herbicidal rate of 5% or less (almost no effect))	4 (Herbicidal rate of 70% or more and less than 90%)	3 (Herbicidal rate of 40% or more and less than 70%)	4 (Herbicidal rate of 70% or more and less than 90%)	4 (Herbicidal rate of 70% or more and less than 90%)	0 (Herbicidal rate of 5% or less (almost no effect))	0 (Herbicidal rate of 5% or less (almost no effect))	3 (Herbicidal rate of 40% or more and less than 70%)	1 (Herbicidal rate of 5% or more and less than 20%)	3 (Herbicidal rate of 40% or more and less than 70%)	5 (Herbicidal rate of 90% or more (almost completely withered))	5 (Herbicidal rate of 90% or more (almost completely withered))	5 (Herbicidal rate of 90% or more (almost completely withered))	5 (Herbicidal rate of 90% or more (almost completely withered))	herbicidal effect, F: southern crabgrass (southern crabgrass [2]): 0 (Herbicidal rate of 5% or less (almost no effect)); herbicidal effect, G: green foxtail (green foxtail [3]): 0 (Herbicidal rate of 5% or less (almost no effect)); herbicidal effect, H: barnyard grass (barnyard grass [4]): 0 (Herbicidal rate of 5% or less (almost no effect)); herbicidal effect, I: wild oat (wild oat [5]): 0 (Herbicidal rate of 5% or less (almost no effect)); herbicidal effect, J: blackgrass (blackgrass [6]): 0 (Herbicidal rate of 5% or less (almost no effect)); herbicidal effect, K: Italian ryegrass (Italian ryegrass [7]): 0 (Herbicidal rate of 5% or less (almost no effect)); herbicidal effect, L: windgrass (windgrass [8]): 0 (Herbicidal rate of 5% or less (almost no effect)); herbicidal effect, M: velvetleaf (velvetleaf [9]): 0 (Herbicidal rate of 5% or less (almost no effect)); herbicidal effect, N: redroot pigweed (redroot pigweed [10]): 2 (Herbicidal rate of 20% or more and less than 40%); herbicidal effect, O: lambsquarters (lambsquarters [11]): 1 (Herbicidal rate of 5% or more and less than 20%); herbicidal effect, P: chickweed (chickweed [12]): 0 (Herbicidal rate of 5% or less (almost no effect)); herbicidal effect, R: persian speedwell (persian speedwell [13]): 3 (Herbicidal rate of 40% or more and less than 70%)
Cc1nn(C)c(=O)c(-c2c(-c3ccc(Cl)cc3)sc3cc(Cl)ccc23)c1O [3-033]	4 (Herbicidal rate of 70% or more and less than 90%)	3 (Herbicidal rate of 40% or more and less than 70%)	5 (Herbicidal rate of 90% or more (almost completely withered))	3 (Herbicidal rate of 40% or more and less than 70%)	5 (Herbicidal rate of 90% or more (almost completely withered))	4 (Herbicidal rate of 70% or more and less than 90%)	4 (Herbicidal rate of 70% or more and less than 90%)	4 (Herbicidal rate of 70% or more and less than 90%)	4 (Herbicidal rate of 70% or more and less than 90%)	4 (Herbicidal rate of 70% or more and less than 90%)	4 (Herbicidal rate of 70% or more and less than 90%)	5 (Herbicidal rate of 90% or more (almost completely withered))	4 (Herbicidal rate of 70% or more and less than 90%)	5 (Herbicidal rate of 90% or more (almost completely withered))	5 (Herbicidal rate of 90% or more (almost completely withered))	F: southern crabgrass, herbicidal effect grade (southern crabgrass [2]): 0 (Herbicidal rate of 5% or less (almost no effect)); G: green foxtail, herbicidal effect grade (green foxtail [3]): 0 (Herbicidal rate of 5% or less (almost no effect)); H: barnyard grass, herbicidal effect grade (barnyard grass [4]): 0 (Herbicidal rate of 5% or less (almost no effect)); I: wild oat, herbicidal effect grade (wild oat [5]): 0 (Herbicidal rate of 5% or less (almost no effect)); J: blackgrass, herbicidal effect grade (blackgrass [6]): 0 (Herbicidal rate of 5% or less (almost no effect)); K: Italian ryegrass, herbicidal effect grade (Italian ryegrass [7]): 4 (Herbicidal rate of 70% or more and less than 90%); L: windgrass, herbicidal effect grade (windgrass [8]): 3 (Herbicidal rate of 40% or more and less than 70%); M: velvetleaf, herbicidal effect grade (velvetleaf [9]): 0 (Herbicidal rate of 5% or less (almost no effect)); N: redroot pigweed, herbicidal effect grade (redroot pigweed [10]): 4 (Herbicidal rate of 70% or more and less than 90%); O: lambsquarters, herbicidal effect grade (lambsquarters [11]): 3 (Herbicidal rate of 40% or more and less than 70%); P: chickweed, herbicidal effect grade (chickweed [12]): 2 (Herbicidal rate of 20% or more and less than 40%); R: persian speedwell, herbicidal effect grade (persian speedwell [13]): 3 (Herbicidal rate of 40% or more and less than 70%)
